# Test results taken from US10564167B2, “Method for detecting cells” (FUNDACIÓ INSTITUT DE CIÈNCIES FOTÒNIQUES, priority 2014, dated 2020).
# Legend:
# Type in all cases: cell-based
# [1] = system: human fibroblast nuclei (hFb); assay: STORM super-resolution imaging of H2B nanodomains / nucleosome clutches in TSA-treated human fibroblasts
# Description: (§1) Human fibroblasts (hFb) (BJ, Skin Fibroblast, American Type Culture Collection, ATCC® CRL-2522™) were cultured in DMEM supplemented with 10% FBS, 1× Non-essential AA, 1× GlutaMax and 1× penicillin/streptomycin. Human fibroblasts were treated with 300 nM of TSA (TricostatinA, Sigma-Aldrich) solution (TSA-hFbs) in complete growth medium for 24 hours before imaging experiments. Human fibroblasts expressing the Histone H2B-SNAP fusion protein were obtained after drug selection of nucleofected cells with the pSNAP-H2B Plasmid (N91795, New England BioLabs) using the Amaxa Human Dermal Fibroblast Nucleofector Kit (Lonza, VPD-1001).
# For the imaging experiments, cells were plated on 8-well Lab-tek 1 coverglass chamber (Nunc) at a seeding density of 20,000-50,000 cells per well, fixed and permeabilized with Methanol-Ethanol (1:1) solution at −20° C. for 6 min or fixed with PFA 4% in PBS for 10 min and then permeabilized with 0.1% v/v Triton X-100 (SIGMA) in PBS for 10 min at room temperature. As the distribution of H2B was independent of the fixation and permeabilization protocols, Methanol-Ethanol (1:1) was preferred to minimize the handling of the sample. […]
# For all H2B quantification experiments, primary rabbit polyclonal anti-H2B (ab1790) and the secondary donkey anti-rabbit labeled with Alexa Fluor 405-Alexa Fluor 647 (Invitrogen) pair dyes were used after in vitro characterization using mononucleosome, 12- and 24-nucleosome array labeling.
# (§2) STORM imaging was carried out with a commercial STORM microscope system from Nikon Instruments (NSTORM). Laser light at 647 nm was used for exciting Alexa Fluor 647 (Invitrogen) and switching it to the dark state, and laser light at 405 nm was used for reactivating the Alexa Fluor 647 (Invitrogen) fluorescence via an activator dye (Alexa Fluor 405)—facilitated manner. […]
# [2] = system: H3 acetylation in human fibroblast cells; assay: STORM imaging of H3 acetylation in human fibroblasts before and after TSA; settings: hFbs, 300 nM TSA 24 hours, STORM images
# Description: as §1
# (§3) For the imaging experiments, cells were plated on 8-well Lab-tek 1 coverglass chamber (Nunc) at a seeding density of 20,000-50,000 cells per well, fixed and permeabilized with Methanol-Ethanol (1:1) solution at −20° C. for 6 min or fixed with PFA 4% in PBS for 10 min and then permeabilized with 0.1% v/v Triton X-100 (SIGMA) in PBS for 10 min at room temperature. […]
# as §2
# [3] = system: human fibroblast nuclei (hFb); assay: Multi-color STORM imaging of H2B and H1 co-localization in hFbs and TSA-hFbs; settings: TSA-hFbs (hFbs 61±11%, p=0.028)
# Description: as §1, §3, §2
smiles,measurement,setting,value
"CC(/C=C/C(=O)NO)=C\[C@@H](C)C(=O)c1ccc(N(C)C)cc1 [TSA, Trichostatin A]","distributions of number of localizations per nanodomain, nanodomain areas and nanodomain nnds vs hFbs","[1]; TSA-hFbs compared to hFbs, p<10^-3",shifted to lower values
same,H2B nanodomain density in the nuclear periphery compared to the nuclear interior (enhancement),"[1]; TSA-hFbs, 300 nM TSA 24 hours (untreated hFbs ~25% higher)",~10%
same,median number of nucleosomes per clutch,"[1]; hFbs treated with 300 nM TSA for 24 hours, converted from H2B localizations by in vitro calibration curve (untreated hFbs ~8)",~2 nucleosomes
same,H3 acetylation after TSA treatment,[2],large increase in H3 acetylation
same,percentage of H2B co-localized with H1,[3],42±6%
